Test systems include KM12 colon; CAKI-1 renal; COLO 205 colon; SN12C renal; UO-31 renal; IGROV1 ovarian; SK-MEL-2 melanoma; UACC-257 melanoma; BT-549 breast; T-47D breast.
Common to all, as to assay: NCI-60 cell line screen, 48 h

Several values for one entry are separate records, joined by “and”; a condition that tells them apart may be missing. Equal entries are not always repeated.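 Method: 48-hour compound exposure of cells in 96-well plates, five concentrations, linear interpolation of endpoints. GI50 marks 50% less growth. TGI marks complete inhibition of growth.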

Take `Cc1noc2cccc(OCc3ccccc3)c12`: the TGI with KM12 colon, with CAKI-1 renal, in the assay on COLO 205 colon, in the assay on SN12C renal, in the assay on UO-31 renal and in the assay on IGROV1 ovarian was more than 100 µM each time. Further, the TGI with SK-MEL-2 melanoma was 94.5 µM; in the assay with UACC-257 melanoma it was more than 100 µM.

Take `O=S(=O)(N/N=C/c1ccc(Cl)c(Cl)c1)c1ccccc1`: the TGI was more than 100 µM in the assay on KM12 colon; more than 100 µM in the assay with CAKI-1 renal; 39.6 µM in the assay with COLO 205 colon; more than 100 µM with SN12C renal; 94.2 µM in the assay on UO-31 renal; more than 100 µM in the assay on IGROV1 ovarian. Further, the TGI with SK-MEL-2 melanoma and in the assay with UACC-257 melanoma was more than 100 µM each time.

With `O=C(C=Nc1ccccc1C(=O)[O-])c1cccs1.O=C(C=Nc1ccccc1C(=O)[O-])c1cccs1.[Co+2]`, the TGI in the assay on KM12 colon, in the assay on CAKI-1 renal, in the assay on COLO 205 colon, in the assay with SN12C renal, in the assay on UO-31 renal and in the assay on IGROV1 ovarian was more than 100 µM in each case. Besides, the TGI in the assay with SK-MEL-2 melanoma and in the assay on UACC-257 melanoma was more than 100 µM in each case.

On to `Cc1oc2c(C)c3oc(=O)cc(C)c3cc2c1CNC(=O)[C@@H]1OCCOCCOCCOCCOCCOC1C(=O)O` (stereo partly drawn), for which the TGI in the assay with KM12 colon, in the assay with CAKI-1 renal, with COLO 205 colon, in the assay with SN12C renal, in the assay on UO-31 renal and in the assay on IGROV1 ovarian was more than 100 µM each time. In addition, in the assay on UACC-257 melanoma, the TGI is more than 100 µM.

`Nc1cc(C(=O)O)[nH]c(=O)n1`: the TGI with KM12 colon, in the assay on BT-549 breast, in the assay with CAKI-1 renal, in the assay on COLO 205 colon, in the assay on SN12C renal and in the assay with UO-31 renal was more than 100 µM in each case. Also, the TGI in the assay with IGROV1 ovarian, with SK-MEL-2 melanoma and with UACC-257 melanoma was more than 100 µM in each case.

As to `Cc1ccccc1C1=[N+]([O-])c2ccccc2C1=O`, the TGI in the assay on KM12 colon is 25.9 µM; in the assay with COLO 205 colon it was 29.1 µM; in the assay on SN12C renal it was 32.1 µM; in the assay with UO-31 renal, 36.6 µM; in the assay on IGROV1 ovarian it was 34.9 µM; in the assay with SK-MEL-2 melanoma it was 21.2 µM. Further, the TGI in the assay on UACC-257 melanoma is 27.9 µM.

Consider `COC(c1cccc(C(O)(C(F)(F)F)C(F)(F)F)c1)(C(F)(F)F)C(F)(F)F`, for which the TGI with KM12 colon amounted to 33.9 µM; in the assay on CAKI-1 renal it was 39.7 µM; in the assay on COLO 205 colon, 33.5 µM; with SN12C renal, 32.2 µM; in the assay with UO-31 renal, 34.2 µM; in the assay on IGROV1 ovarian, 35.3 µM. Further, the TGI turned out to be 33.7 µM in the assay with SK-MEL-2 melanoma and 42.3 µM with UACC-257 melanoma.

Regarding `COc1ccc2c(c1)C(=O)N1CCOC1C2C(=O)O` (stereo not drawn), the TGI in the assay with KM12 colon, with CAKI-1 renal, in the assay with SN12C renal, in the assay on UO-31 renal, in the assay with IGROV1 ovarian and with UACC-257 melanoma was more than 100 µM in each case.

Turning to `CC(=O)O[C@@]12CO[C@@H]1C[C@H](O)[C@@]1(C)C(=O)[C@H](O)C3=C(C)[C@@H](OC(=O)[C@H](O)[C@@H](NC(=O)OC(C)(C)C)c4ccccc4)C[C@@](O)([C@@H](OC(=O)c4ccccc4)[C@H]21)C3(C)C`, the GI50 with KM12 colon is 0.00708 µM and 0.0021 µM; in the assay on CAKI-1 renal, 0.146 µM; with COLO 205 colon, 0.0023 µM and 0.000963 µM; in the assay with SN12C renal, 0.0224 µM and 0.00869 µM; in the assay with UO-31 renal it was 0.247 µM; with IGROV1 ovarian, 0.0593 µM and 0.0198 µM. Moreover, the GI50 in the assay with SK-MEL-2 melanoma was 0.0269 µM; in the assay with UACC-257 melanoma it was 0.31 µM. Moreover, the TGI was more than 62.2 µM with KM12 colon; 81.8 µM in the assay on CAKI-1 renal; 0.059 µM and 0.00717 µM in the assay on COLO 205 colon; more than 68.3 µM in the assay on SN12C renal; 18 µM with UO-31 renal; more than 79 µM with IGROV1 ovarian. The molecule also yielded a TGI in the assay on UACC-257 melanoma of 57.9 µM.

As for `O=C(Nc1ccccc1)c1nn(-c2cc(S(=O)(=O)O)c([N+](=O)[O-])cc2Cl)[n+](-c2cc(S(=O)(=O)[O-])c([N+](=O)[O-])cc2Cl)n1`, the TGI in the assay on KM12 colon, in the assay with CAKI-1 renal, in the assay with COLO 205 colon, in the assay on SN12C renal, in the assay with UO-31 renal and in the assay on T-47D breast was more than 100 µM throughout. Besides, the TGI in the assay on IGROV1 ovarian, with SK-MEL-2 melanoma and in the assay with UACC-257 melanoma was more than 100 µM each time.

For `CCCOC(=O)C1CCC(=O)N1C(=O)C(C)Cl` (stereo not drawn), the TGI in the assay with KM12 colon, in the assay on CAKI-1 renal, with COLO 205 colon, in the assay with SN12C renal, with UO-31 renal and with IGROV1 ovarian was more than 100 µM throughout. For the same molecule, the TGI with SK-MEL-2 melanoma and in the assay with UACC-257 melanoma was more than 100 µM each time.

For `CN(CCCCCl)P(=O)(OCc1ccc([N+](=O)[O-])o1)OCC1OC(n2ccc(N)nc2=O)C(F)(F)C1O` (stereo not drawn), the GI50 with KM12 colon was 14.8 µM; in the assay with BT-549 breast it was 1.57 µM; in the assay with CAKI-1 renal, 0.223 µM; with COLO 205 colon, 7.47 µM; in the assay on SN12C renal it was 0.363 µM; with IGROV1 ovarian, 35.4 µM. Also, the values for the GI50 with SK-MEL-2 melanoma and in the assay on UACC-257 melanoma were more than 80.3 µM and 17.2 µM, respectively. For the same molecule, the TGI in the assay with KM12 colon is more than 73.9 µM; in the assay on BT-549 breast, 88.2 µM; in the assay with COLO 205 colon it was more than 41.6 µM; with SN12C renal it was 9.62 µM; with UO-31 renal, more than 100 µM; in the assay with IGROV1 ovarian, more than 100 µM. In addition, the TGI in the assay with SK-MEL-2 melanoma and with UACC-257 melanoma was more than 100 µM in each case.

As for `CC1(Cl)CC2OC3(Br)C=CC(C)(O)C2(CC1Br)C3(C)C` (stereo not drawn), the TGI in the assay with KM12 colon, in the assay with CAKI-1 renal, with COLO 205 colon, in the assay on SN12C renal, in the assay on UO-31 renal and in the assay on IGROV1 ovarian was more than 100 µM each time. Also, the TGI in the assay on SK-MEL-2 melanoma and with UACC-257 melanoma was more than 100 µM throughout.

For `CC1OC(n2ccc(=O)[nH]c2=O)C=C(OC(=O)c2ccccc2)C1=O` (stereo not drawn), the TGI with CAKI-1 renal, in the assay on COLO 205 colon, in the assay on SN12C renal, with UO-31 renal, in the assay with IGROV1 ovarian and with UACC-257 melanoma was more than 100 µM in each case.

These data come from PubChem BioAssay (NCI).
